# Data reported in the OPERA property sets (Mansouri et al. 2018).
# Conditions: not given
SMILES,boiling point,melting point,log10 vapour pressure (mmHg),log10 Koc (L/kg),ready biodegradability,log10 Henry constant (atm·m³/mol),log10 biodegradation half-life (days),log10 Koa
N#Cc1ccc(F)cc1,189 °C,34.8 °C,–,–,–,–,–,–
OCC1=CCN2CC[C@@H](O)[C@@H]12,–,120 °C,–,–,–,–,–,–
O=[n+]1[n-]c(-n2ccnc2)nc2ccc(Cl)cc21,–,182 °C,-8.65,–,–,–,–,–
O=C(Nc1cccc(Cl)c1)OCC#CCCl,–,75 °C,-6.42,3.06,not readily biodegradable,–,–,–
C[C@H](O)CCCO,202 °C,–,–,–,–,–,–,–
OCc1c(Cl)cccc1Cl,–,98 °C,–,–,–,–,–,–
O=c1ccn([C@@H]2O[C@H](CO)[C@@H](O)[C@@H]2O)c(=O)[nH]1,–,165 °C,–,–,–,–,–,–
C=CC(O)CCCCCC (centres undefined),194 °C,–,–,–,–,–,–,–
FC(F)(F)c1ccccc1,102 °C,-29.1 °C,1.59,–,not readily biodegradable,–,–,–
COc1cc(CC(=O)O)ccc1O,–,144 °C,–,–,–,–,–,–
CCCCI,131 °C,-103 °C,1.14,–,–,–,–,–
C[C@]12CC[C@H]3[C@@H](CCC4=C(O)C(=O)CC[C@@H]43)[C@@H]1CC[C@@H]2O,–,189 °C,–,–,–,–,–,–
CC(=O)Cc1ccccc1,216 °C,-15 °C,–,–,–,–,–,–
COc1ccc2[nH]cc(CCNC(C)=O)c2c1,–,117 °C,–,–,–,–,–,–
Cc1c(N=C=O)cccc1N=C=O,–,18.3 °C,-1.68,–,–,–,–,–
CSc1nc(NC(C)C)nc(NC(C)C)n1,–,119 °C,-5.91,2.85,–,–,–,–
CCCCCCCCCCCO,243 °C,19 °C,-2.53,–,readily biodegradable,–,–,–
FC(F)(F)C(F)(Cl)C(Cl)(Cl)C(F)(F)F (centres undefined),98 °C,4 °C,–,–,–,–,–,–
NC1CCC1,82 °C,–,–,–,–,–,–,–
O=C(O)c1nn(Cc2ccc(Cl)cc2Cl)c2ccccc12,–,207 °C,–,–,–,–,–,–
CN(C)CCCNc1c2ccccc2nc2cccc([N+](=O)[O-])c12,–,134 °C,–,–,–,–,–,–
c1cc(N(CC2CO2)CC2CO2)ccc1Cc1ccc(N(CC2CO2)CC2CO2)cc1 (centres undefined),–,–,–,–,not readily biodegradable,–,–,–
CCCCC(=O)OCC(C)C,179 °C,–,–,–,–,–,–,–
CCCCOC(=O)CCC(=O)OCCCC,274 °C,-29.2 °C,–,–,–,–,–,–

SMILES,boiling point,melting point,log10 vapour pressure (mmHg),log10 Koc (L/kg),ready biodegradability,log10 Henry constant (atm·m³/mol),log10 biodegradation half-life (days),log10 Koa
Cc1ccc(Br)cc1C,214 °C,-0.2 °C,–,–,–,–,–,–
CC#CCCCCCCCC,204 °C,-30.1 °C,–,–,–,–,–,–
COBOC,25.9 °C,-131 °C,–,–,–,–,–,–
CC(=O)OCC#N,200 °C,–,–,–,–,–,–,–
CCCN(CCC)c1ccccc1,242 °C,–,–,–,–,–,–,–
CCCC(C)C(C)CCC (centres undefined),162 °C,–,–,–,–,–,–,–
Oc1ccccc1O,246 °C,105 °C,-2.44,–,readily biodegradable,–,–,–
CCc1ccc2cc(O)c(O)cc2c1,–,149 °C,–,–,–,–,–,–
CC=C(C)Br,99.8 °C,–,–,–,–,–,–,–
CCC1(CC)C(=O)CCNC1=O,–,104 °C,–,–,–,–,–,–
CC1CCOC1 (centres undefined),86.5 °C,–,–,–,–,–,–,–
ClC#CCl,33 °C,-66 °C,–,–,–,–,–,–
CCNc1nc(NC(C)(C)C)nc(OC)n1,–,124 °C,-5.7,–,–,–,–,–
Oc1ccc2c(O)c3ccccc3cc2c1O,–,208 °C,–,–,–,–,–,–
CCN(CC)c1cccc(C)c1,232 °C,–,–,–,–,–,–,–
O[C@@H]1C[C@H]2CC[C@@H]1C2,176 °C,133 °C,–,–,–,–,–,–
NC(=O)N=NC(N)=O,–,–,-9.73,–,not readily biodegradable,–,–,–
Clc1cc2c(Cl)c(Cl)c(Cl)c(Cl)c2c(Cl)c1Cl,–,–,-7.07,–,–,–,–,–
C=CC(F)(F)C(F)(F)C(F)(F)C(F)(F)C(F)(F)C(F)(F)F,104 °C,–,–,–,–,–,–,–
CCCCCCCCCCCCCCCCCCBr,–,28.2 °C,-5.23,–,–,–,–,–
COc1cccc(OC)c1OC,235 °C,48.5 °C,–,–,–,–,–,–
Cl.N=C(N)SCc1ccccc1,–,173 °C,–,–,–,–,–,–
CCN1CCNC(=O)C1=O,–,108 °C,–,–,–,–,–,–
CS(=O)(=O)OCCCNCCCOS(C)(=O)=O,–,116 °C,–,–,–,–,–,–

SMILES,boiling point,melting point,log10 vapour pressure (mmHg),log10 Koc (L/kg),ready biodegradability,log10 Henry constant (atm·m³/mol),log10 biodegradation half-life (days),log10 Koa
CC(C)[C@@H](C)CC[C@@H](C)[C@H]1CC[C@H]2C3=CC[C@H]4C[C@@H](O)CC[C@]4(C)[C@H]3CC[C@]12C,–,146 °C,–,–,–,–,–,–
O=C(O)c1c(Cl)c(Cl)c(Cl)c(Cl)c1Cl,–,209 °C,–,–,–,–,–,–
ClC(c1ccccc1)(c1ccccc1)c1ccccc1,310 °C,114 °C,–,–,not readily biodegradable,–,–,–
C=CCc1cccc2ccccc12,266 °C,–,–,–,–,–,–,–
CCCCCOC(=O)CCC,186 °C,-73.2 °C,–,–,–,–,–,–
Cc1cccc(-c2ccccc2)c1,273 °C,4.5 °C,–,–,–,–,–,–
CCCCCCCOC=O,178 °C,–,–,–,–,–,–,–
CCC1(C(C)C)C(=O)NC(=O)NC1=O,–,203 °C,–,–,–,–,–,–
O=C(O)Cc1ccc(-c2ccccc2)cc1,–,160 °C,–,–,–,–,–,–
CCOO,95 °C,-100 °C,–,–,–,-5.53,–,–
C[C@]12CCc3c(ccc4cc(O)ccc34)[C@@H]1CCC2=O,–,258 °C,–,–,–,–,–,–
CCCCCC(C)OC(=O)COc1ccc(Cl)c2cccnc12 (centres undefined),–,69.4 °C,-7.4,–,–,–,–,–
CCCCN(CCCC)CCCC,216 °C,-70 °C,-1.03,–,not readily biodegradable,–,–,–
c1ccc(Cn2cncn2)cc1,–,49 °C,–,–,–,–,–,–
Cc1ccccc1-n1c(C)nc2ccccc2c1=O,–,120 °C,–,–,–,–,–,–
Oc1cc(Cl)c(Cl)c(Cl)c1Cl,–,116 °C,–,4.12,–,–,–,–
COc1cc(S(C)=O)ccc1-c1nc2ncccc2[nH]1 (centres undefined),–,204 °C,–,–,–,–,–,–
CC(CCC(=O)O)c1ccccc1 (centres undefined),–,13 °C,–,–,–,–,–,–
CCOC(=O)COc1cc(Cl)c(Cl)cc1Cl,–,64 °C,–,–,–,–,–,–
Cc1cc(O)c(C)c(O)c1,278 °C,163 °C,–,–,–,–,–,–
COC(=O)CC(C)=O,172 °C,–,-0.0496,–,readily biodegradable,–,–,–
Cc1cc(C(C)(C)C)cc(C(C)(C)C)c1O,269 °C,51 °C,–,–,–,–,–,–
CC(=O)C=NO,–,69 °C,–,–,–,–,–,–
Cc1c(C)c(C)c(N)c(C)c1C,278 °C,152 °C,–,–,–,–,–,–

SMILES,boiling point,melting point,log10 vapour pressure (mmHg),log10 Koc (L/kg),ready biodegradability,log10 Henry constant (atm·m³/mol),log10 biodegradation half-life (days),log10 Koa
O=C1CCCC(=O)C1,–,106 °C,–,–,–,–,–,–
N#CC1CCC1,150 °C,–,–,–,–,–,–,–
COc1cc(-c2coc3cc(O)c(OC)c(O)c3c2=O)cc(O)c1OC,–,185 °C,–,–,–,–,–,–
CCCC(C)(O)CCC,161 °C,-82 °C,–,–,–,–,–,–
Nc1c(C(=O)O)ccc2c1C(=O)c1ccccc1C2=O,–,296 °C,–,–,–,–,–,–
O=[N+]([O-])c1ccc(O/N=C/c2cc(Br)c(O)c(Br)c2)c([N+](=O)[O-])c1,–,196 °C,–,–,–,–,–,–
CCCCCC(C)C,118 °C,-109 °C,1.32,–,–,–,0.477,–
CC#Cc1cc(C)nc(Nc2ccccc2)n1,–,133 °C,-6.76,–,–,–,–,–
O=[N+]([O-])c1ccccc1F,–,-6 °C,–,–,–,–,–,–
COc1cccc(C(=O)NN)c1,–,94 °C,–,–,–,–,–,–
O=S(=O)(O)c1cccc(S(=O)(=O)O)c1,–,–,–,–,not readily biodegradable,–,–,–
C[Si](C)(C)Cc1ccccc1,190 °C,–,–,–,–,–,–,–
CCCCCCCC(=O)OC(C)C,–,–,-0.963,–,–,–,–,–
O=C1CCOc2ccccc21,–,36.5 °C,–,–,–,–,–,–
O=[N+]([O-])c1ccccc1Sc1ccccc1,–,82 °C,–,–,–,–,–,–
OC1CCC(Cl)CC1 (centres undefined),–,82.5 °C,–,–,–,–,–,–
Nc1ccc(Nc2ccc(N)cc2)cc1,–,158 °C,–,–,–,–,–,–
C/C=C(/C)c1ccccc1,195 °C,–,–,–,–,–,–,–
CCC1(C)CCCCC1,152 °C,–,–,–,–,–,–,–
Cc1cc(C)c(O)c(C)c1C,240 °C,80.5 °C,–,–,–,–,–,–
FC(=C(F)C(F)(F)F)C(F)(F)F,1.5 °C,-129 °C,3.3,–,–,–,–,–
FCCF,30.7 °C,–,2.79,–,–,–,–,–
Brc1cc(Br)c(Br)s1,260 °C,29 °C,–,–,–,–,–,–
CC(=O)O[C@@H]1C[C@]2(O)[C@H](CC[C@]3(C)[C@@H](c4ccc(=O)oc4)CC[C@@]32O)[C@@]2(C)CC[C@H](O[C@@H]3O[C@H](CO)[C@@H](O)[C@H](O)[C@H]3O)C=C12,–,169 °C,–,–,–,–,–,–

SMILES,boiling point,melting point,log10 vapour pressure (mmHg),log10 Koc (L/kg),ready biodegradability,log10 Henry constant (atm·m³/mol),log10 biodegradation half-life (days),log10 Koa
Nc1c(Br)cc(Br)cc1Br,300 °C,122 °C,–,–,–,–,–,–
CCCOc1ccccc1OCC(O)CO (centres undefined),–,70 °C,–,–,–,–,–,–
CCCOC(=O)CC(C)C,156 °C,–,0.413,–,–,–,–,–
C=C(C)C(C)(C)CC,108 °C,-69 °C,1.48,–,–,–,–,–
O=C(O)c1cccc(O)c1O,–,204 °C,–,–,–,–,–,–
O=C(O)C1=CCCCC1,241 °C,38 °C,–,–,–,–,–,–
CC(C)OC(=O)C1(S(=O)(=O)c2ccc([N+](=O)[O-])cc2)CCCCC1,–,110 °C,–,–,–,–,–,–
CCN(CC)CCSC(=O)N(c1ccccc1)c1ccccc1,–,48.5 °C,–,–,–,–,–,–
CC(=O)C1CCC1,138 °C,–,–,–,–,–,–,–
CC(C)C12C=CC(C)(CC1)OO2 (centres undefined),–,3.3 °C,–,–,–,–,–,–
ClC1C(Br)C(Br)C(Br)C(Br)C1Br (centres undefined),–,–,–,–,not readily biodegradable,–,–,–
OCC(CO)(CO)CBr,–,76 °C,–,–,–,–,–,–
CCCCN(CCCC)C(=O)COC(=O)c1ccccc1,–,25 °C,–,–,–,–,–,–
NS(=O)(=O)C(F)(F)C(F)(F)C(F)(F)C(F)(F)C(F)(F)C(F)(F)C(F)(F)C(F)(F)F,–,–,-0.606,–,–,–,–,–
CN(C)c1ccc(C2(c3ccc(N(C)C)cc3)OC(=O)c3cc(N(C)C)ccc32)cc1,–,–,–,–,not readily biodegradable,–,–,–
O=C(O)CC1CCCCC1,245 °C,33 °C,–,–,–,–,–,–
CC(=O)Nc1cccc(F)c1,–,83 °C,–,1.57,–,–,–,–
COc1cc(C=CCO)ccc1O,–,74 °C,–,–,–,–,–,–
Nc1ccc(Cl)nc1Cl,–,119 °C,–,–,–,–,–,–
C=CCBr,70.1 °C,-119 °C,–,–,–,–,–,–
Cc1ccccc1C,144 °C,-25.2 °C,0.82,2.25,readily biodegradable,-2.29,0.778,3.91
C/C=C(\C)C(=O)O[C@H]1C[C@@H](OC(C)=O)[C@@]2(C(=O)OC)CO[C@H]3[C@@H](O)[C@@](C)([C@]45O[C@@]4(C)[C@H]4C[C@@H]5O[C@@H]5OC=C[C@@]54O)[C@H]4[C@]1(CO[C@]4(O)C(=O)OC)[C@@H]32,–,156 °C,–,–,–,–,–,–
Cc1cc2ncn(C3OC(CO)C(O)C3O)c2cc1C (centres undefined),–,198 °C,–,–,–,–,–,–
CC(C)N(C(=O)SCC(Cl)=CCl)C(C)C,–,25 °C,-3.82,3.28,–,–,–,–

# Same assay, conditions: fish
SMILES,log10 BCF,log10 biotransformation half-life (days)
OCc1c(Cl)cccc1Cl,0.47,-1.37
FC(F)(F)c1ccccc1,1.65,-0.48
Clc1cc2ccccc2c2ccccc12,3.49,1.8
ClC(c1ccccc1)(c1ccccc1)c1ccccc1,2.63,-0.15
CCCCN(CCCC)CCCC,1.4,–
ClC(Cl)=C(Cl)c1c(Cl)c(Cl)c(Cl)c(Cl)c1Cl,3.91,2.04
Cc1cc2ccccc2c2ccccc12,–,0.12
ClC1C(Br)C(Br)C(Br)C(Br)C1Br (centres undefined),2.41,-0.31
Cc1ccccc1C,1.15,–
